System: 762968-020-R-J2-PDC spheroids viability
Assay: Anticancer human tumor 762968-020-R-J2-PDC patient-derived colon carcinoma cell line growth inhibition [TAK]
Conditions: spheroids with HUVEC and MSC; for IC50: curve of first compound; for viability, T/C: stronger effect = lower value
Method in brief: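 Spheroids of 60% malignant cells, 25% HUVEC and 15% hMSC were exposed to targeted agents combined with TAK-243 or ipatasertib. Concentrations started at or near clinical Cmax (10 microM if unknown) and descended in half-log steps.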

[1] = second compound 0.3 µM, first compound 0.00316 µM
[2] = second compound 0.3 µM, first compound 0.01 µM
[3] = second compound 0.3 µM, first compound 0.0316 µM
[4] = second compound 0.3 µM, first compound 0.1 µM
[5] = second compound 0.949 µM, first compound 0.00316 µM
[6] = second compound 0.949 µM, first compound 0.01 µM
[7] = second compound 0.949 µM, first compound 0.0316 µM
[8] = second compound 0.949 µM, first compound 0.1 µM
[9] = second compound 3 µM, first compound 0.00316 µM
[10] = second compound 3 µM, first compound 0.01 µM
[11] = second compound 3 µM, first compound 0.0316 µM
[12] = second compound 3 µM, first compound 0.1 µM
[13] = second compound 9.49 µM, first compound 0.00316 µM
[14] = second compound 9.49 µM, first compound 0.01 µM
[15] = second compound 9.49 µM, first compound 0.0316 µM
[16] = second compound 9.49 µM, first compound 0.1 µM
[17] = second compound 30 µM, first compound 0.00316 µM
[18] = second compound 30 µM, first compound 0.01 µM
[19] = second compound 30 µM, first compound 0.0316 µM
[20] = second compound 30 µM, first compound 0.1 µM
[21] = second compound 0.3 µM, first compound 0.316 µM
[22] = second compound 0.3 µM, first compound 1 µM
[23] = second compound 0.949 µM, first compound 0.316 µM
[24] = second compound 0.949 µM, first compound 1 µM
[25] = second compound 3 µM, first compound 0.316 µM
[26] = second compound 3 µM, first compound 1 µM
[27] = second compound 9.49 µM, first compound 0.316 µM
[28] = second compound 9.49 µM, first compound 1 µM
[29] = second compound 30 µM, first compound 0.316 µM
[30] = second compound 30 µM, first compound 1 µM
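Note: spheroids exposed to drug for 7 days before readout.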
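Throughout, for viability, T/C: 100% = DMSO vehicle control wells.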

CC(C)n1nc(-c2ccc3oc(N)nc3c2)c2c(N)ncnc21 + CC(C)NCC(C(=O)N1CCN(c2ncnc3c2C(C)CC3O)CC1)c1ccc(Cl)cc1
IC50 (second compound 0.3 µM): > 100 nM
IC50 (second compound 0.949 µM): > 100 nM
IC50 (second compound 3 µM): > 100 nM
IC50 (second compound 9.49 µM): > 100 nM
IC50 (second compound 30 µM): > 100 nM
viability, T/C (second compound 0.3 µM, first compound 0.000316 µM): 96.5%
viability, T/C (second compound 0.3 µM, first compound 0.001 µM): 97.1%
viability, T/C [1]: 101%
viability, T/C [2]: 91.8%
viability, T/C [3]: 87.5%
viability, T/C [4]: 72.9%
viability, T/C (second compound 0.949 µM, first compound 0.000316 µM): 96.9%
viability, T/C (second compound 0.949 µM, first compound 0.001 µM): 96.7%
viability, T/C [5]: 99.9%
viability, T/C [6]: 99.3%
viability, T/C [7]: 87.4%
viability, T/C [8]: 73.2%
viability, T/C (second compound 3 µM, first compound 0.000316 µM): 99.5%
viability, T/C (second compound 3 µM, first compound 0.001 µM): 95.1%
viability, T/C [9]: 103%
viability, T/C [10]: 93.4%
viability, T/C [11]: 92.3%
viability, T/C [12]: 65.7%
viability, T/C (second compound 9.49 µM, first compound 0.000316 µM): 94.4%
viability, T/C (second compound 9.49 µM, first compound 0.001 µM): 103%
viability, T/C [13]: 98.3%
viability, T/C [14]: 93.4%
viability, T/C [15]: 79.1%
viability, T/C [16]: 63.5%
viability, T/C (second compound 30 µM, first compound 0.000316 µM): 83%
viability, T/C (second compound 30 µM, first compound 0.001 µM): 84.2%
viability, T/C [17]: 84.3%
viability, T/C [18]: 81.9%
viability, T/C [19]: 74%
viability, T/C [20]: 63.6%

COc1c(OCCCN2CCOCC2)ccc2c3n(c(=NC(=O)c4cnc(N)nc4)nc12)CCN3 + CC(C)NCC(C(=O)N1CCN(c2ncnc3c2C(C)CC3O)CC1)c1ccc(Cl)cc1
IC50 (second compound 0.3 µM): > 1000 nM
IC50 (second compound 0.949 µM): > 1000 nM
IC50 (second compound 3 µM): > 1000 nM
IC50 (second compound 9.49 µM): > 1000 nM
IC50 (second compound 30 µM): > 1000 nM
viability, T/C [1]: 95.4%
viability, T/C [2]: 101%
viability, T/C [3]: 89.3%
viability, T/C [4]: 85.1%
viability, T/C [21]: 69.4%
viability, T/C [22]: 66.8%
viability, T/C [5]: 101%
viability, T/C [6]: 96.7%
viability, T/C [7]: 94%
viability, T/C [8]: 84.7%
viability, T/C [23]: 71.3%
viability, T/C [24]: 70%
viability, T/C [9]: 105%
viability, T/C [10]: 100%
viability, T/C [11]: 98.3%
viability, T/C [12]: 89.9%
viability, T/C [25]: 71.6%
viability, T/C [26]: 60.2%
viability, T/C [13]: 102%
viability, T/C [14]: 94.7%
viability, T/C [15]: 88.6%
viability, T/C [16]: 85%
viability, T/C [27]: 78%
viability, T/C [28]: 67%
viability, T/C [17]: 91.8%
viability, T/C [18]: 81.3%
viability, T/C [19]: 79.4%
viability, T/C [20]: 69.5%
viability, T/C [29]: 68.7%
viability, T/C [30]: 59.1%

Cc1nc(NC(=O)N2CCCC2C(N)=O)sc1-c1ccnc(C(C)(C)C(F)(F)F)c1 (stereo not given) + CC(C)NCC(C(=O)N1CCN(c2ncnc3c2C(C)CC3O)CC1)c1ccc(Cl)cc1
IC50 (second compound 0.3 µM): > 10000 nM
IC50 (second compound 0.949 µM): > 10000 nM
IC50 (second compound 3 µM): > 10000 nM
IC50 (second compound 9.49 µM): > 10000 nM
IC50 (second compound 30 µM): > 10000 nM
viability, T/C [3]: 119%
viability, T/C [4]: 109%
viability, T/C [21]: 99.4%
viability, T/C [22]: 92.5%
viability, T/C (second compound 0.3 µM, first compound 3.16 µM): 98.8%
viability, T/C (second compound 0.3 µM, first compound 10 µM): 89.7%
viability, T/C [7]: 113%
viability, T/C [8]: 111%
viability, T/C [23]: 97.2%
viability, T/C [24]: 102%
viability, T/C (second compound 0.949 µM, first compound 3.16 µM): 99.5%
viability, T/C (second compound 0.949 µM, first compound 10 µM): 94.6%
viability, T/C [11]: 108%
viability, T/C [12]: 109%
viability, T/C [25]: 108%
viability, T/C [26]: 102%
viability, T/C (second compound 3 µM, first compound 3.16 µM): 94.4%
viability, T/C (second compound 3 µM, first compound 10 µM): 99.7%
viability, T/C [15]: 110%
viability, T/C [16]: 108%
viability, T/C [27]: 105%
viability, T/C [28]: 106%
viability, T/C (second compound 9.49 µM, first compound 3.16 µM): 94%
viability, T/C (second compound 9.49 µM, first compound 10 µM): 89.6%
viability, T/C [19]: 78.6%
viability, T/C [20]: 81.5%
viability, T/C [29]: 81.8%
viability, T/C [30]: 75.7%
viability, T/C (second compound 30 µM, first compound 3.16 µM): 74.3%
viability, T/C (second compound 30 µM, first compound 10 µM): 69.8%
